Measured values published in ChEMBL document CHEMBL1201862, “PubChem BioAssay data set” (2004).
Calls of active or inactive are those of the source. Cut-off read from the data, not from the text of the source, for most assays here: actives have a measured EC50 and inactives only a lower limit.

Experiments:
[1] = molecular target: T1, Cytochrome P450 2C9 (Homo sapiens, UniProt P11712)
[2] = molecular target: Cytochrome P450 3A4 (Homo sapiens, UniProt P08684);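 note: CYP3A4 tested as one member of a cytochrome P450 panel screen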
[3] = NIH-3T3 fibroblast cytotoxicity, dose response, cytotoxicity control, cell-based, fluorescence, Alamar Blue, secondary assay (AID 2327); format: functional;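 note: NIH-3T3 mouse fibroblasts cultured with fluconazole at 8 µg/mL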
[4] = fluconazole-exposed Candida albicans growth modulators – fluorescence, retest, confirmation (AID 2467); format: functional, cell-based
[5] = molecular target: ATP-dependent molecular chaperone HSP82 (Candida albicans (strain WO-1) (Yeast), UniProt C4YTQ8); assay: steroid-induced GRE reporter decrease in yeast – S. cerevisiae, luminescence, Hsp90 inhibitor project, dose response (AID 2400); format: functional, cell-based;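 note: beta-galactosidase luminescence from glucocorticoid response element reporter as proxy for Hsp90 function; inhibitor potency where signal loss means Hsp90 inhibition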
[6] = molecular target: T2, Serine/threonine-protein phosphatase (Candida dubliniensis (strain CD36 / CBS 7987 / NCPF 3949 / NRRLY-17841) (Yeast), UniProt B9W6M3); assay: blockers of CaCl2-induced CDRE-lacZ signaling – S. cerevisiae, luminescence, secondary, dose response (AID 2388); format: functional, cell-based;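 note: yeast reporter cells carrying a calcineurin-responsive lacZ construct stimulated with calcium chloride; luminescent beta-galactosidase reporter signal in whole cells rather than isolated phosphatase activity; potency for inhibition where a drop in reporter signal means calcineurin blockade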
T2 sequence (B9W6M3 whole entry): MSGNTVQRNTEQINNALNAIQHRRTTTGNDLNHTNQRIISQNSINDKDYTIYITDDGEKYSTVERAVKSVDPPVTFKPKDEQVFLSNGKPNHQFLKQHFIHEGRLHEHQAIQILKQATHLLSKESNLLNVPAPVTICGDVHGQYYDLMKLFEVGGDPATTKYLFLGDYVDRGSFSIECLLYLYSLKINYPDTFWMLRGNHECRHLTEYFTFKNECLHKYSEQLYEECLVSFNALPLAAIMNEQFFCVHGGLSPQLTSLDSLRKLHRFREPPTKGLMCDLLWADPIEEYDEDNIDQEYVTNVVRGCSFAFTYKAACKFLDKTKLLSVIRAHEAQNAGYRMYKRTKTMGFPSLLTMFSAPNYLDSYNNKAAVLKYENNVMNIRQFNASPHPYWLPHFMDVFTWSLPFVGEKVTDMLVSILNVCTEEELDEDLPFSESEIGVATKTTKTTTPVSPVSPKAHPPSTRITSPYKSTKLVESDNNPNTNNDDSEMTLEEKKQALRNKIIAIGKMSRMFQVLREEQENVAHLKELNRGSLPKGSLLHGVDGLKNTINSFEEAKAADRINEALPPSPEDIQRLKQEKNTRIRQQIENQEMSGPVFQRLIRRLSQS

[7] = molecular target: T1, Cytochrome P450 2C9; remark: listed apart in the source
[8] = molecular target: FAD-linked sulfhydryl oxidase ALR (Homo sapiens, UniProt P55789); assay: ALR-catalysed DTT oxidation blockers – biochemical, H2O2 detection, luminescence, cherry-pick, dose response (AID 493248)
[9] = molecular target: T3, Lysine-specific demethylase 4C (Homo sapiens, UniProt Q9H3R0); assay: inhibition of JMJD2C H3K9me3 demethylation – biochemical, DELFIA europium, cherry-picked samples, dose response (AID 488835); format: functional
T3 sequence (Q9H3R0 whole entry): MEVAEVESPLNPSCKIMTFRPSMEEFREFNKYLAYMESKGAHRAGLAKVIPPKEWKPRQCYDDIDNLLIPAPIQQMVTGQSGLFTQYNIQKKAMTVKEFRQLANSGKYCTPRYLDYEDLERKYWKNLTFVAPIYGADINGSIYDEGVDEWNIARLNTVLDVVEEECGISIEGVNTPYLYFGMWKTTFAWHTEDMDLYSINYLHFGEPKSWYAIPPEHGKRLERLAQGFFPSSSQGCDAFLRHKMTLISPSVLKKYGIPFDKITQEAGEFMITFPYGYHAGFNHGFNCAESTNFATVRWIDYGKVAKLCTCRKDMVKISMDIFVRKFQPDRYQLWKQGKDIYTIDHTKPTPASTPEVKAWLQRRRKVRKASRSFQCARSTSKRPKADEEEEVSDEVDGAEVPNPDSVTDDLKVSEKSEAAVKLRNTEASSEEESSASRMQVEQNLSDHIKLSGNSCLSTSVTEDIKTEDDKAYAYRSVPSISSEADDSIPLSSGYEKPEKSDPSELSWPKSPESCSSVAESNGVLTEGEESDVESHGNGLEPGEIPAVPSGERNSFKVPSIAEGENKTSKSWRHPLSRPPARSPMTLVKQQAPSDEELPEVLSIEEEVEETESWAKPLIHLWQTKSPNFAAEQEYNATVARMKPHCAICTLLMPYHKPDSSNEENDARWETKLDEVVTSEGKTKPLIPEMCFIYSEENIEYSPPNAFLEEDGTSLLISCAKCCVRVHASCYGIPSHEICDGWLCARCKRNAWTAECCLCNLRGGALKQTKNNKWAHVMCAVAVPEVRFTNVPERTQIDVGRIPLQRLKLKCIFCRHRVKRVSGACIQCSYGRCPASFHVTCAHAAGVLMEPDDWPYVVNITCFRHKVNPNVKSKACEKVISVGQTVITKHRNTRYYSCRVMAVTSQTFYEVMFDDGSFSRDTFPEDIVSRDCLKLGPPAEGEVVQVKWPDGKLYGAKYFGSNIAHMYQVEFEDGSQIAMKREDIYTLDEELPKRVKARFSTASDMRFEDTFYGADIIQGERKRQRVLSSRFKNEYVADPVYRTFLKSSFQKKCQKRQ

[10] = DRD fibroblast viability loss – cell-based, non-viral oncogenic, luminescence, dose response (AID 1934); format: functional; details: Homo sapiens
[11] = tested on: BJ; assay: growth inhibition of engineered Ras-driven BJ cells – cell-based, alamar blue fluorescence, cherrypicked samples, dose response (AID 2631); format: functional; details: Homo sapiens;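 note: confirmatory dose-response assay in RAS-dependent BJ fibroblasts engineered with TERT, LT and ST, with cytotoxicity read by fluorescence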
[12] = tested on: BJ; assay: cells; format: functional, cell-based; details: Homo sapiens
[13] = tested on: BJ; assay: BJ-TERT-LT-ST fibroblast viability loss – cell-based, RAS-independent, luminescence, dose response (AID 1935); format: functional; details: Homo sapiens;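 note: BJ fibroblasts immortalized with TERT plus LT and ST oncogenes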
[14] = tested on: BJ; assay: BJ-TERT fibroblast viability loss – cell-based, RAS-independent, luminescence, dose response (AID 1933); format: functional; details: Homo sapiens
[15] = molecular target: Ras and Rab interactor 1/Tyrosine-protein kinase ABL1 (Homo sapiens, UniProt P00519+Q13671); format: functional;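 note: biochemical TR-FRET dose-response test measuring inhibition of binding between Rin1 and Abl proteins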
Ras and Rab interactor 1/Tyrosine-protein kinase ABL1, sequence (P00519 whole entry): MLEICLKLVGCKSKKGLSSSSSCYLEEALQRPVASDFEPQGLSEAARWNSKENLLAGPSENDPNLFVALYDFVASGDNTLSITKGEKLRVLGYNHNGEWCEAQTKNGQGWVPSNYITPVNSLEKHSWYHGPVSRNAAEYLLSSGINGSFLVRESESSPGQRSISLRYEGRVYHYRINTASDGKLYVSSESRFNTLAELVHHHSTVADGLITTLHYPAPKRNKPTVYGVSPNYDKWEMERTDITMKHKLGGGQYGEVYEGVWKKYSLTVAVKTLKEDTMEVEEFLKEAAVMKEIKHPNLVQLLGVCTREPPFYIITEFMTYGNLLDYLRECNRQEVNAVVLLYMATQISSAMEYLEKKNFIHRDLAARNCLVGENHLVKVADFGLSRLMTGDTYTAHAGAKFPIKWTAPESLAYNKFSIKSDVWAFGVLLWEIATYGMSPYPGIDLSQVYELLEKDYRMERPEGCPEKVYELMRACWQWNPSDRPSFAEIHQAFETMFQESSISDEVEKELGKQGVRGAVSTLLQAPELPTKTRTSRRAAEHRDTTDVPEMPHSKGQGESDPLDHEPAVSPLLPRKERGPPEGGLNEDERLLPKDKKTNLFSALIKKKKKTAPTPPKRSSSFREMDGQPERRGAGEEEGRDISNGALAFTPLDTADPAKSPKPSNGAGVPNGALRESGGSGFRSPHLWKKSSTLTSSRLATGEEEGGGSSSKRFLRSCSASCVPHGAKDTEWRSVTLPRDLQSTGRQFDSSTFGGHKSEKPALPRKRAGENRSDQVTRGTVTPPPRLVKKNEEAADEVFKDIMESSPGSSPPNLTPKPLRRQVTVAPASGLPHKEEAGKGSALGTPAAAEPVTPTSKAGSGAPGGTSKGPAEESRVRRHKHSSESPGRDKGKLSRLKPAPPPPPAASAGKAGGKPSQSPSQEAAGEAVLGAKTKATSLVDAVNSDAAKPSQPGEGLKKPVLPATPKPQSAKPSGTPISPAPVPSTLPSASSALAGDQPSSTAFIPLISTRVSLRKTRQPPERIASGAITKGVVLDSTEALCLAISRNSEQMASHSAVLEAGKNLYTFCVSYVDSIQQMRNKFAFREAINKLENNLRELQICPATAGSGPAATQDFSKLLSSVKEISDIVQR
Ras and Rab interactor 1/Tyrosine-protein kinase ABL1, sequence (Q13671 whole entry): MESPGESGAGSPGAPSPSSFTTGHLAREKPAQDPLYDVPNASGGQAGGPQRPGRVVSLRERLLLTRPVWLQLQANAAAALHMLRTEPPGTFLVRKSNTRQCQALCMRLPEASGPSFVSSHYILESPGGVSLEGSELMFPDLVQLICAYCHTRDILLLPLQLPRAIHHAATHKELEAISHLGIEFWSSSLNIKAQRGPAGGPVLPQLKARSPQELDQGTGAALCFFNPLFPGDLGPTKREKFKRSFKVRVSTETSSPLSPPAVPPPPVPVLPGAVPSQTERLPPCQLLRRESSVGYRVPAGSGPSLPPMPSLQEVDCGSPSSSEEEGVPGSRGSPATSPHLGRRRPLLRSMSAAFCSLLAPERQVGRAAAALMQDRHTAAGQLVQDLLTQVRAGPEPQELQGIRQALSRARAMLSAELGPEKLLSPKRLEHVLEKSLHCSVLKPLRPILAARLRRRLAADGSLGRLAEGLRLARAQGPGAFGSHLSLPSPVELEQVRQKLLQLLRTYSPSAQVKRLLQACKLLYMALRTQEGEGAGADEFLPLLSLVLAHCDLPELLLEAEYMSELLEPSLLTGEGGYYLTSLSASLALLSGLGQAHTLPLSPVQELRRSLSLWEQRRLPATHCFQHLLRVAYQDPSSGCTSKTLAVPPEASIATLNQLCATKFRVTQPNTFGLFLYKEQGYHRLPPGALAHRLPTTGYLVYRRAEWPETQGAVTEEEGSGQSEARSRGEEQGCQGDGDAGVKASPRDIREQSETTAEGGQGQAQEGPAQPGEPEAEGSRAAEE

T1 sequence (P11712 whole entry): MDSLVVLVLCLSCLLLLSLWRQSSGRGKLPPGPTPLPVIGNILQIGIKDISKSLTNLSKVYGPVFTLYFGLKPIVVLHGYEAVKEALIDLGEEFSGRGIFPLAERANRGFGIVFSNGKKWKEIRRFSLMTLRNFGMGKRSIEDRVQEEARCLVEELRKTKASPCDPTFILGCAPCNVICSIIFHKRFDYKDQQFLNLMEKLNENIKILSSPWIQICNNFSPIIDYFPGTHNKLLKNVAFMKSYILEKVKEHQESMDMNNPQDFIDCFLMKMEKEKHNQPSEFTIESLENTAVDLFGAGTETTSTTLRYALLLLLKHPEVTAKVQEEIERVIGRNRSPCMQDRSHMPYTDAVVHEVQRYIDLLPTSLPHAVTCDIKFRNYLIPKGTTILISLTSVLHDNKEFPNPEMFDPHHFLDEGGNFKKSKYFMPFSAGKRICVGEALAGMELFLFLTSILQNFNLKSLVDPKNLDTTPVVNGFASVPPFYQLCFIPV
Cytochrome P450 3A4, sequence (P08684 whole entry): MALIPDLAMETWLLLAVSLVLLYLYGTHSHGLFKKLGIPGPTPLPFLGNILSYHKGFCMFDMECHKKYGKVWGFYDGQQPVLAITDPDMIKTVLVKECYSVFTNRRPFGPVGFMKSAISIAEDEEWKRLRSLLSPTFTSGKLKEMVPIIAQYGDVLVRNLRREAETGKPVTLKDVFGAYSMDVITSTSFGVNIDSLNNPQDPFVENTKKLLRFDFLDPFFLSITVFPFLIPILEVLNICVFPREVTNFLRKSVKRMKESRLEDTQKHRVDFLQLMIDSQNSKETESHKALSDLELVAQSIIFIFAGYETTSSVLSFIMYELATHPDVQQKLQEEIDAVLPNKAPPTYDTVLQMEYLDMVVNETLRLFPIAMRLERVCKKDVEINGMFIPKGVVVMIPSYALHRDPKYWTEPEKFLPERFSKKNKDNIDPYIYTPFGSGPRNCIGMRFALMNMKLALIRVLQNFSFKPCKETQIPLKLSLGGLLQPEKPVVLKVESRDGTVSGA
ATP-dependent molecular chaperone HSP82, sequence (C4YTQ8 whole entry): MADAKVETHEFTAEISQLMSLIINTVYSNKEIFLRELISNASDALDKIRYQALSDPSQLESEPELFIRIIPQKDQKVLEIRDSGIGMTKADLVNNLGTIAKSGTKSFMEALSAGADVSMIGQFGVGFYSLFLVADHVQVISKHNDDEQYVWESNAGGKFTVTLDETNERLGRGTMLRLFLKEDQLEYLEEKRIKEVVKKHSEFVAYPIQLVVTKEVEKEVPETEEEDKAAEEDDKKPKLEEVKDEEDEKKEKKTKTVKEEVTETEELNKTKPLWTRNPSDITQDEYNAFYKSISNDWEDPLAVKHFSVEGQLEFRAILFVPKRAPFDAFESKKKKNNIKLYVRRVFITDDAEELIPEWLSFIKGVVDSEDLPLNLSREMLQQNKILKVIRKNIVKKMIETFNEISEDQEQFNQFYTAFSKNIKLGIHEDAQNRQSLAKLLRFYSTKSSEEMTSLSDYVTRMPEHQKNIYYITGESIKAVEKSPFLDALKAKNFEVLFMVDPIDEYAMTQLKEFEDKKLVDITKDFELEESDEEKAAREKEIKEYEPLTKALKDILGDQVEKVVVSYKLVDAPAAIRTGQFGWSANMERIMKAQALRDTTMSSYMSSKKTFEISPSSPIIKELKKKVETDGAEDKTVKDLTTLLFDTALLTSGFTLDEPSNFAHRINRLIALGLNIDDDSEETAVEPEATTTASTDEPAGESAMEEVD
FAD-linked sulfhydryl oxidase ALR, sequence (P55789 whole entry): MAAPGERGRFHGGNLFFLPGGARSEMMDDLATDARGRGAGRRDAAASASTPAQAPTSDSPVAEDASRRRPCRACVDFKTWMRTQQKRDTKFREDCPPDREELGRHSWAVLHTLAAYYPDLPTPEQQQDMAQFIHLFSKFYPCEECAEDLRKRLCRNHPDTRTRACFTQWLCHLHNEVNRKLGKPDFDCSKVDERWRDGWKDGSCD

C/C(Nc1c(C)n(C)n(-c2ccccc2)c1=O)=C1/C(=O)NC(=O)N(Cc2ccccc2)C1=O
AC50 [1]: inconclusive | AC50 [2]: inconclusive

CCc1nnc(NC(=O)CSc2ncc(-c3ccccc3)n2C)s1
EC50 [3]: > 150 µM (inactive) | EC50 [4]: 1.3 µM (active) | EC50 [5]: 23.1 µM (active) | EC50 [6]: > 180 µM (inactive)

C=CCN1CCc2c(cc(O)c(O)c2Br)[C@H](c2ccccc2)C1
AC50 [2]: inconclusive | AC50 [7]: 31.6 µM (inconclusive)

c1ccc(-c2nc(-c3ccco3)cs2)nc1
AC50 [8]: 0.593 µM (active) | AC50 [9]: 20 µM (active)

N=c1c2c(-c3ccccc3)c(-c3ccccc3)n(Cc3ccco3)c2ncn1CCCn1ccnc1
EC50 [10]: 9.54 µM (active) | EC50 [11]: 1.81 µM (active) | EC50 [12]: 22.5 µM (active) | EC50 [13]: > 75 µM (not active) | EC50 [14]: 9.46 µM (active)

CN(Cc1c(F)cccc1Cl)C(=O)CNC(=O)c1ccc2c(c1)OCO2
IC50 [15]: 6.04 µM (active)

Cc1ccccc1/C=C1\SC(=S)N(/N=C/c2cc([N+](=O)[O-])ccc2O)C1=O
EC50 [3]: > 160 µM (inactive) | EC50 [4]: 2.01 µM (active) | EC50 [5]: 20.7 µM (active) | EC50 [6]: > 180 µM (inactive)

CN1CCN(c2ncc3nc(CCc4ccccc4)c(=O)n(C)c3n2)CC1
AC50 [2]: inconclusive | AC50 [7]: 39.8 µM (inconclusive)
